Like-named read-outs stand apart in the source and are kept apart here.
Key:
[1] = cited from earlier work
[2] = control experiment without phospholipid: isotonic glycerol solution neutralized to pH 7.0; format: physicochemical
Experimental: In a control experiment 25 μl of the 100 mg phenytoin/ml solution in 1 M NaOH is added to 1.0 ml of isotonic glycerol solution to make up 2500 μg phenytoin/ml.

[3] = for precipitation in liposomal dispersion after neutralization: 100 mg phospholipid/ml liposomes ca 30 nm in isotonic glycerol
Experimental: Visual assessment may be supported by comparing the transmission optical density (OD) measurements before and after the compound is added when the system is at equilibrium. […] The figures should be at least 80% of the initial transmission value of the blank dispersion which is used as a control. […] When the liposome dispersions are not sufficiently transparent the loading process can nevertheless be followed by e.g. using microscopy techniques to detect unassociated drug particles.
A first aqueous suspension comprising SUVs is prepared in a micro-fiuidizer. The dispersion contains 100 mg phospholipid/ml in isotonic glycerol solution.

[4] = cited from earlier work; remark: listed apart in the source
[5] = cited from earlier work; remark: listed apart in the source
[6] = 5 mg drug/ml in isotonic glycerol solution, neutralized to pH 7.0 with NaOH
[7] = 5 mg drug/ml, neutralized to pH 7.0 with NaOH
[8] = 2.5 mg drug/ml in isotonic glycerol solution, neutralized to pH 7.0

## O=C1NC(=O)C(c2ccccc2)(c2ccccc2)N1 [Phenytoin sodium]
[1]; pH 10-pH13, according to Martindale
  solubility at pH 10-pH13: freely soluble

## CC(=O)N1CCN(c2ccc(OCC3COC(Cn4ccnc4)(c4ccc(Cl)cc4Cl)O3)cc2)CC1 (centres unmarked) [ketoconazole]
[1]
  solubility at pH 1.2: 2729 μg/ml
  solubility in water at pH 7: 2 μg/ml
[2]; [6]
  precipitation in control without lipid after neutralization: precipitates
[3]; [7]
  precipitation in liposomal dispersion after neutralization: no precipitated ketoconazole can be seen

## OCCN(CCO)c1nc(N2CCCCC2)c2nc(N(CCO)CCO)nc(N3CCCCC3)c2n1 [dipyridamole]
[4]
  pKa: 6.4
[1]
  solubility at pH 1.2: 1753 μg/ml
  solubility in water at pH 7: 5 μg/ml
[2]; [8]
  precipitation in control without lipid after neutralization: precipitates
[3]; 2.5 mg drug/ml, neutralized to pH 7.0
  precipitation in liposomal dispersion after neutralization: No precipitated dipyridamole is noticed

## CN1C(=O)CN=C(c2ccccc2)c2cc(Cl)ccc21 [diazepam]
[2]; [6]
  precipitation in control without lipid after neutralization: precipitates out
[3]; [7]
  precipitation in liposomal dispersion after neutralization: remain dear without diazepam precipitates

## O=C1NC(=O)C(c2ccccc2)(c2ccccc2)N1 [phenytoin]
[5]
  Log P oil/water: 2.3
[1]
  solubility in water at pH 7: 3.7 μg/ml
[1]; listed as Phenytoin
  solubility in water at pH 7: 37 μg/ml
[2]; [8]
  precipitation in control without lipid after neutralization: precipitates
[3]; pH 7
  amount solubilized in the liposomes: 2500 µg
